Marks after values point to notes of the source that are not given here. Ends that are not written are not given here.
Assays:
[1] = test system: clinical Salmonella isolates; assay: MIC, broth microdilution; type: cell-based; conditions: for MIC: MHB, 5 × 10^5 CFU/mL, 37 °C, 18 h, duplicate
Protocol: All 12 isolates of Salmonella used in this study were clinical isolates and anonymous left-overs from laboratory diagnoses. They were maintained in a 20% glycerol (Sigma-Aldrich) stock at −80 °C and further cultured on Mueller-Hinton agar (MHA, Oxoid, Hampshire, UK) at 37 °C for 18 h to obtain single colonies for antimicrobial assays. This study was approved by the Ethics Committee of the Faculty of Tropical Medicine (Mahidol University, Bangkok, Thailand; MUTM-EXMPT 2017-007).
MIC was determined using the broth microdilution method described by Hancock with some modifications. Briefly, bacterial colonies grown from the MHA were prepared in MHB (Oxoid) as a 0.5 McFarland suspension (which is equal to 1 × 10^8 CFU/mL), and was further 200-fold diluted by the MHB (5 × 10^5 CFU/mL). The bacterial suspension (50 µL) was mixed with 2-fold serial dilutions of peptide (5.5 µL) achieving final concentrations of 256 to 1 µM using a round-bottom polypropylene (PP) 96-well plate (Greiner Bio-One). The plate was incubated at 37 °C for 18 h including incubating peptide free-bacteria as positive growth control, and MHB as negative growth control. After the incubation, the lowest concentration with no visible growth was defined as a MIC value. The assay was performed in a duplicate manner.

sheep red blood cells = assay: Hemolytic activity assay; type: cell-based; conditions: for percent hemolysis: 2% sRBCs in PBS, 37 °C, 1 h, OD540, triplicate mean
Protocol: The peptide toxicity to the mammalian system was screened based on the hemolytic test by measuring the hemoglobin released from ruptured red blood cells (RBCs). In this study, sheep RBCs (sRBCs) were employed. They were thrice washed and prepared as a suspension in phosphate-buffered saline (PBS, Oxoid). A suspension of 2% sRBCs was incubated with 2-fold serial dilutions of peptide (final concentrations; 256 to 1 µM in a total volume of 200 µL) at 37 °C for 1 h. The solutions of 0.1% (final concentration) Triton X-100 (Sigma-Aldrich) and PBS containing the peptide solvent were used instead of the peptides as the controls of hemolysis at 100% and 0%, respectively. Thereafter, the post-incubated suspensions were centrifuged (1000× g, 3 min) to pelletize residual sRBCs. The supernatants were then transferred into a flat-bottom PS 96-well plate and were measured the absorbance at 540 nm (OD540) by a microplate reader. The test was conducted in triplicate and the mean OD540 was used to calculate the hemolysis (%) as; ((OD540 (peptide) − OD540 (PBS + peptide solvent))/(OD540 (0.1% Triton X-100) − OD540 (PBS + peptide solvent))) × 100. The hemolytic concentration 50 (HC50), a concentration inducing 50% hemolysis, was determined.
The GraphPad Prism version 7.00 (GraphPad Software, La Jolla, CA, USA) was applied for all statistical analyses and data visualizations. Replicate quantitative results were calculated and shown as mean ± SD, unless otherwise specified. The HC50 values were determined using nonlinear regression analysis. The paired t-test and repeated measures one-way ANOVA with Tukey’s multiple comparison test were applied to compare between 2 groups and among 3 or more groups, respectively. The comparisons were considered as a statistically significant difference when a p-value < 0.05.

[2] = Overall hydrophobicity from RP-HPLC data (percent acetonitrile at elution); type: physicochemical; conditions: percentage of acetonitrile at which the peptide eluted, more % ACN = more hydrophobic
[3] = test system: clinical Salmonella isolates; assay: Antibiofilm: inhibition of initial cell attachment, crystal violet; type: cell-based; conditions: 24 h, 30 °C, polystyrene plate, crystal violet OD590
Protocol: The effect of peptides on biofilm formation was tested according to the method described by Sandasi et al. with slight modifications.
Bacterial suspensions of 5 × 10^5 CFU/mL in MHB were prepared as described above. […] The plates were incubated to grow biofilms for 24 h at 30 °C. The incubations of bacteria without peptide and MHB without bacteria were employed as positive (100%) control and negative (0%) control for biofilm growth, respectively. The assay was carried out twice.
The biofilm biomasses obtained from the antibiofilm assay plates were quantified by the crystal violet (CV) staining method with minor modifications. After incubating the plates to grow the biofilms, the growth medium and free bacterial cells were gently removed from the wells and then rinsed thrice with water. The plates were air-dried and subsequently 60 °C oven-dried for 30 min. Each well was stained with 125 µL of 0.1% CV (Merck, Burlington, MA, USA) solution for 15 min. The solution was removed from the wells and further thrice rinsed with water. The biomass bound CV was dissolved with 125 µL of 95% ethanol (Merck) for 5 min, and was transferred into a flat-bottom PS 96-well plate (Jet Biofil, Guangzhou, China). Absorbance values at 590 nm (OD590) of the dissolved solutions were measured by a microplate reader (Tecan Sunrise, Männedorf, Switzerland). Mean OD590 values were determined and all were subtracted by mean OD590 of MHB (negative control) prior to calculate the inhibition (%) as; ((OD590 (no peptide) − OD590 (peptide))/(OD590 (no peptide)) × 100.

Q: Which “GM of MIC (GMMIC)” value ([1]; geometric mean over 12 clinical Salmonella isolates) does the source give for FIRRIARLLRRIF-NH2 [Kn2-5R-NH2] here?
A: The value was 4 µM.

Q: And the MIC ([1]; isolate 5 (Enteritidis, blood; resistant AMP, SXT, KZ))?
A: Its MIC is 4 µM.

Q: What about the MIC ([1]; isolate 7 (Typhimurium, blood; resistant AMP, CN, TE, NA, SXT)) of the same substance?
A: The MIC was 4 µM.

Q: What about the MIC ([1]; isolate 11 (I 1,4:i:-, blood; resistant AMP, TE, NA, SXT, C)) of the same substance?
A: Its MIC is 4 µM.

Q: What about the MIC ([1]; isolate 18 (Stanley, urine; resistant TE, SXT, C)) of the same substance?
A: The MIC was 4 µM.

Q: What about the MIC ([1]; isolate 26 (Typhimurium, urine; resistant TZP, TE, NA)) of the same substance?
A: Its MIC is 4 µM.

Q: And the MIC ([1]; isolate 27 (Typhimurium, stool; resistant AMP, TE, NA, SXT, CIP))?
A: The MIC was 4 µM.

Q: What about the MIC ([1]; isolate 55 (Typhimurium, blood; resistant AMP, SXT, C, TE)) of the same substance?
A: The MIC was 4 µM.

Q: And the MIC ([1]; isolate 61 (Enteritidis, blood; resistant AMP, TE, NA, SXT))?
A: Its MIC is 4 µM.

Q: What about the MIC ([1]; isolate 69 (Typhimurium, stool; resistant AMP)) of the same substance?
A: Its MIC is 4 µM.

Q: What about the MIC ([1]; isolate 76 (Enteritidis, CSF; resistant NA)) of the same substance?
A: Its MIC is 4 µM.

Q: What about the MIC ([1]; isolate 78 (Enteritidis, blood; resistant TE, CIP, NA, SXT)) of the same substance?
A: Its MIC is 4 µM.

Q: And the MIC ([1]; isolate 107 (Typhimurium, stool; susceptible))?
A: The MIC was 4 µM.

Q: And the “HC50 (hemolytic concentration 50)” value (sheep red blood cells; concentration inducing 50% hemolysis of sRBCs, nonlinear regression, unit (µM))?
A: The value was 67.09 µM.

Q: And the percent hemolysis (sheep red blood cells; peptide 1 µM)?
A: Its percent hemolysis is 0.1%.

Q: And the percent hemolysis (sheep red blood cells; peptide 2 µM)?
A: Its percent hemolysis is 0.3%.

Q: What about the percent hemolysis (sheep red blood cells; peptide 4 µM) of the same substance?
A: Its percent hemolysis is 2 * %.

Q: What about the percent hemolysis (sheep red blood cells; peptide 8 µM) of the same substance?
A: Its percent hemolysis is 2.5%.

Q: What about the percent hemolysis (sheep red blood cells; peptide 16 µM) of the same substance?
A: The percent hemolysis was 5.4%.

Q: What about the percent hemolysis (sheep red blood cells; peptide 32 µM) of the same substance?
A: Its percent hemolysis is 16.9%.

Q: And the percent hemolysis (sheep red blood cells; peptide 64 µM)?
A: The percent hemolysis was 40.3%.

Q: And the percent hemolysis (sheep red blood cells; peptide 128 µM)?
A: Its percent hemolysis is 99.3%.

Q: And the percent hemolysis (sheep red blood cells; peptide 256 µM)?
A: Its percent hemolysis is 99.5%.

Q: What about the “concentration required for the initiation of hemolysis” value (sheep red blood cells; sRBCs, 60 min, 256–1 µM tested) of the same substance?
A: Its value is 1 µM.

Q: What about the “ACN (%) at elution, overall hydrophobicity” value [2] of the same substance?
A: The value was 42.1%.

Q: And the “Inhibition (%) of cell attachment” value ([3]; 0.25MBC, isolate 5)?
A: The value was 69%.

Q: What about the “Inhibition (%) of cell attachment” value ([3]; 0.25MBC, isolate 7) of the same substance?
A: Its value is 73.6%.

Q: What about the “Inhibition (%) of cell attachment” value ([3]; 0.25MBC, isolate 11) of the same substance?
A: Its value is 64.3%.

Q: And the “Inhibition (%) of cell attachment” value ([3]; 0.25MBC, isolate 18)?
A: The value was 25%.

Q: What about the “Inhibition (%) of cell attachment” value ([3]; 0.25MBC, isolate 26) of the same substance?
A: The value was 88.2%.

Q: What about the “Inhibition (%) of cell attachment” value ([3]; 0.25MBC, isolate 27) of the same substance?
A: Its value is 79.1%.

Q: What about the “Inhibition (%) of cell attachment” value ([3]; 0.25MBC, isolate 55) of the same substance?
A: Its value is 73.3%.

Q: And the “Inhibition (%) of cell attachment” value ([3]; 0.25MBC, isolate 61)?
A: Its value is 33.3%.

Q: What about the “Inhibition (%) of cell attachment” value ([3]; 0.25MBC, isolate 69) of the same substance?
A: The value was 40%.

Q: What about the “Inhibition (%) of cell attachment” value ([3]; 0.25MBC, isolate 76) of the same substance?
A: Its value is 79.1%.

Q: And the “Inhibition (%) of cell attachment” value ([3]; 0.25MBC, isolate 78)?
A: Its value is 43.9%.

Q: What about the “Inhibition (%) of cell attachment” value ([3]; 0.25MBC, isolate 107) of the same substance?
A: The value was 78.3%.

Q: What about the “Inhibition (%) of cell attachment” value ([3]; 0.5MBC, isolate 5) of the same substance?
A: Its value is 100%.

Q: What about the “Inhibition (%) of cell attachment” value ([3]; 0.5MBC, isolate 7) of the same substance?
A: The value was 93%.

Q: And the “Inhibition (%) of cell attachment” value ([3]; 0.5MBC, isolate 11)?
A: Its value is 100%.

Q: What about the “Inhibition (%) of cell attachment” value ([3]; 0.5MBC, isolate 18) of the same substance?
A: The value was 58.3%.

Q: What about the “Inhibition (%) of cell attachment” value ([3]; 0.5MBC, isolate 26) of the same substance?
A: Its value is 100%.

Q: And the “Inhibition (%) of cell attachment” value ([3]; 0.5MBC, isolate 27)?
A: Its value is 100%.

Q: And the “Inhibition (%) of cell attachment” value ([3]; 0.5MBC, isolate 55)?
A: Its value is 84.1%.

Q: And the “Inhibition (%) of cell attachment” value ([3]; 0.5MBC, isolate 61)?
A: Its value is 63.2%.

Q: And the “Inhibition (%) of cell attachment” value ([3]; 0.5MBC, isolate 69)?
A: The value was 64.8%.

Q: What about the “Inhibition (%) of cell attachment” value ([3]; 0.5MBC, isolate 76) of the same substance?
A: Its value is 100%.

Q: And the “Inhibition (%) of cell attachment” value ([3]; 0.5MBC, isolate 78)?
A: Its value is 98.9%.

Q: What about the “Inhibition (%) of cell attachment” value ([3]; 0.5MBC, isolate 107) of the same substance?
A: Its value is 100%.

Source: PMC8348142, “Antimicrobial Peptide Modifications against Clinically Isolated Antibiotic-Resistant Salmonella” (Molecules, 2021)
